Measurements taken from patent publication US12558353B2 (CELLTAXIS, LLC, priority 2018, dated 2026).
“Also recorded” adds a separate entry of the source.

Tests used:
[1] = in vivo; cited from earlier work
[2] = test system: adult patients with cystic fibrosis; experiment: EMPIRE-CF: safety and tolerability; type: in vivo, human; conditions: 48 weeks
Excerpt: Treatment-emergent adverse events (TEAEs), including serious adverse events, were collected at each visit, and summarized by MEDRA system organ class and preferred term, severity, and relatedness to the study drug. An independent data monitoring committee monitored the safety and study conduct at approximately 8-week intervals.

[3] = test system: adult patients with cystic fibrosis; experiment: EMPIRE-CF Phase II randomized placebo-controlled trial: pulmonary exacerbations; type: in vivo, human; conditions: for adjusted mean (95% CI) annualized pulmonary exacerbation rate: all lung disease phenotypes; for adjusted mean (95% CI) annualized pulmonary exacerbation rate / proportion of patients who did not experience a pulmonary exacerbation during the study period: 48 weeks; for patients who did not have a pulmonary exacerbation during the study: baseline FEV1pp>75% (mild disease)
Excerpt: EMPIRE-CF was a Phase II multicenter, randomized, double-blind, placebo-controlled, parallel-group study to evaluate the efficacy and safety of acebilustat in adult patients with CF (NCT02443688). The study consisted of a 48-week treatment period and follow-up visit 4 weeks after treatment completion. Screening visits occurred up to 21 days prior to the first study drug dose (FIG. 2).
Patients were enrolled from 69 centers in the USA, Canada, and Europe. All centers were experienced in CF care and the conduct of clinical trials. In brief, adult women and men 18-30 years old with a documented diagnosis of CF, an FEV1pp≥50% at screening and at least one pulmonary exacerbation in the previous year were enrolled. Baseline demographics are presented in the section below.
Patients were randomized 1:1:1 to receive either once-daily oral acebilustat 50 mg or 100 mg (Celtaxsys, Atlanta, GA, USA), or placebo supplied as capsules. The two acebilustat doses were selected based on the levels of reduction of serum LTB4 production seen in Phase I studies.
Pulmonary exacerbations were defined as the requirement for oral, inhaled or intravenous antibiotics for four or more signs or symptoms according to the modified Fuch's criteria (change in sputum; new or increased hemoptysis; increased cough; increased dyspnea; malaise, fatigue or lethargy; temperature >38° C.; anorexia or weight loss; sinus pain or tenderness; change in sinus discharge; change in physical examination of the chest; ≥10% absolute decrease in FEV1pp from the previously recorded value; radiographic changes indicative of pulmonary infection) [Fuchs et al., 1994], referred collectively (antibiotics plus the four or more signs and symptoms) as expanded Fuchs criteria. The date the pulmonary exacerbation began was defined as the first day of antibiotic use.
(§1) Pulmonary exacerbations were analyzed both as the time to first pulmonary exacerbation and the rate of pulmonary exacerbations. The time to first protocol defined-pulmonary exacerbation were analyzed using a Cox proportional hazards model. The number of protocol-defined pulmonary exacerbations reported through the Week 48/Early Termination visit were annualized (where a year was defined as 52 weeks) analyzed using a negative binomial regression. The two active doses were compared to placebo individually as well as pooled together using a contrast statement similar to that used for the primary analysis. Point estimates, standard errors, and 95% CIs for the mean of number of pulmonary exacerbations were presented. The difference in means between each CTX-4430 group from placebo were presented along with standard errors and 95% CIs. Spirometry-based endpoints were analyzed using the same methods as the primary endpoint. Analyses of sputum DNA and elastase and serum high-sensitivity C-reactive protein were based upon descriptive statistics by treatment group.
The annual rate of pulmonary exacerbations was calculated by standard methods for each treatment group.

[4] = test system: sputum neutrophil elastase, sputum neutrophil DNA, serum high-sensitivity C-reactive protein; experiment: EMPIRE-CF: biomarkers (sputum DNA and elastase, serum hs-CRP); type: in vivo, human; conditions: compared with reductions seen in phase 1 trial
Description: as §1

[5] = test system: adult patients with cystic fibrosis; experiment: EMPIRE-CF: absolute change from baseline in FEV1pp (spirometry); type: in vivo, human; conditions: 48 weeks of therapy
Description: The primary endpoints were absolute change from baseline in FEV1pp and safety outcomes. Secondary endpoints included rate of pulmonary exacerbations and time to first pulmonary exacerbation, and the effects on biomarkers of lung and systemic inflammation. Analyses are described in section entitled “Analysis.”
Spirometry data were recorded at screening and baseline; all other spirometric measurements at subsequent visits are ideally recorded within ±1 h of the baseline visit measurement. All tests met American Thoracic Society/European Respiratory Society criteria for quality (acceptability, reproducibility, and end of test criteria) [Miller et al., 2005]. To ensure consistency of measurement, spirometry measurements were ideally performed by the same researcher and the patient coached to use maximum effort at every attempt. Patients were able to take all of their concomitant medications according to their regular schedule; however, they were to refrain from using short-acting bronchodilators within 4 h of the scheduled spirometry time, and long-acting bronchodilators within 12-24 h of the scheduled spirometry time.
The primary analysis was based upon an analysis of variance (ANOVA) in which the average of the Week 48 change from baseline in FEV1pp for the two acebilustat doses was compared to that in the placebo group. […]

[6] = 100 mg dose, baseline FEV1pp>75%, FAP
[7] = FEV1pp greater than 75 and concomitant CFTR modulator therapy
[8] = FEV1pp>75 at baseline, 100 mg dose
[9] = acebilustat-treated patients overall, analysis population not given
[10] = baseline FEV1pp>75%, FAP, 50 mg
[11] = baseline FEV1pp>75%, FAP, 100 mg
[12] = concomitant CFTR modulator therapy, 100 mg dose

Compound: O=C(O)c1ccc(CN2C[C@@H]3C[C@H]2CN3Cc2ccc(Oc3ccc(-c4ncco4)cc3)cc2)cc1 [acebilustat, 4-{[(1S,4S)-5-({4-[4-oxazol-2-yl-phenoxy]phenyl}methyl)-2,5-diazabicyclo[2.2.1]heptan-2-yl]methyl}benzoic acid]
- AUC0-24 at steady state, fed vs fasting [1]: no differences
- Cmax or AUC0-24, healthy volunteers versus patients with CF [1]: No significant differences
- severity of the majority of adverse events [2]: mild or moderate
- tolerability and risk of infection [2]: safe and well tolerated
- tolerability and risk of infection ([2]; listed as Acebilustat): well tolerated with no increased risk of infection
- rate of pulmonary exacerbations requiring hospitalization as compared to placebo [3, 6]: lower rate
- rate of pulmonary exacerbations requiring intravenous antibiotics as compared to placebo [3, 6]: lower the rate
- Annualized Rate of Pulmonary Exacerbation (Adjusted Mean) ([3]; Baseline ppFEV1 >60, 50 mg): 1.44
- Annualized Rate of Pulmonary Exacerbation, % difference from Placebo ([3]; Baseline ppFEV1 >60, 50 mg): −2%
- Annualized Rate of Pulmonary Exacerbation (Adjusted Mean) ([3]; Baseline ppFEV1 >60, 100 mg): 1.27
- Annualized Rate of Pulmonary Exacerbation, % difference from Placebo ([3]; Baseline ppFEV1 >60, 100 mg): −14%
- Annualized Rate of Pulmonary Exacerbation (Adjusted Mean) ([3]; Baseline ppFEV1 >65, 50 mg): 1.25
- Annualized Rate of Pulmonary Exacerbation, % difference from Placebo ([3]; Baseline ppFEV1 >65, 50 mg): −14%
- Annualized Rate of Pulmonary Exacerbation (Adjusted Mean) ([3]; Baseline ppFEV1 >65, 100 mg): 1.05
- Annualized Rate of Pulmonary Exacerbation, % difference from Placebo ([3]; Baseline ppFEV1 >65, 100 mg): −28%
- Annualized Rate of Pulmonary Exacerbation (Adjusted Mean) ([3]; Baseline ppFEV1 >68, 50 mg): 1.12
- Annualized Rate of Pulmonary Exacerbation, % difference from Placebo ([3]; Baseline ppFEV1 >68, 50 mg): −7%
- Annualized Rate of Pulmonary Exacerbation (Adjusted Mean) ([3]; Baseline ppFEV1 >68, 100 mg): 0.81
- Annualized Rate of Pulmonary Exacerbation, % difference from Placebo ([3]; Baseline ppFEV1 >68, 100 mg): −33%
- Annualized Rate of Pulmonary Exacerbation (Adjusted Mean) ([3]; Baseline ppFEV1 >70, 50 mg): 1.2
- Annualized Rate of Pulmonary Exacerbation, % difference from Placebo ([3]; Baseline ppFEV1 >70, 50 mg): −22%
- Annualized Rate of Pulmonary Exacerbation (Adjusted Mean) ([3]; Baseline ppFEV1 >70, 100 mg): 0.92
- Annualized Rate of Pulmonary Exacerbation, % difference from Placebo ([3]; Baseline ppFEV1 >70, 100 mg): −40%
- Annualized Rate of Pulmonary Exacerbation (Adjusted Mean) ([3]; Baseline ppFEV1 >75, 50 mg): 1.28
- Annualized Rate of Pulmonary Exacerbation, % difference from Placebo ([3]; Baseline ppFEV1 >75, 50 mg): −20%
- Annualized Rate of Pulmonary Exacerbation (Adjusted Mean) ([3]; Baseline ppFEV1 >75, 100 mg): 0.84
- Annualized Rate of Pulmonary Exacerbation, % difference from Placebo ([3]; Baseline ppFEV1 >75, 100 mg): −48%
- time at which divergence in pulmonary exacerbation from placebo occurred ([3]; FAP and PP analysis): approximately 4 months
- adjusted mean (95% CI) annualized pulmonary exacerbation rate ([3]; FAP, 50 mg once daily oral): 1.46 (1.13, 1.89)
- adjusted mean (95% CI) annualized pulmonary exacerbation rate ([3]; FAP, 100 mg once daily oral): 1.57 (1.22, 2.02)
- adjusted mean (95% CI) annualized pulmonary exacerbation rate ([3]; FAP, combined acebilustat groups): 1.51 (1.26, 1.81)
- time to first pulmonary exacerbation, hazard ratio versus placebo (95% CI) ([3]; FAP, 50 mg): 0.86 (0.563, 1.308)
- proportion of patients who did not experience a pulmonary exacerbation during the study period ([3]; FAP, 50 mg): 39%
- time to first pulmonary exacerbation, hazard ratio versus placebo (95% CI) ([3]; FAP, 100 mg): 0.88 (0.576, 1.339)
- proportion of patients who did not experience a pulmonary exacerbation during the study period ([3]; FAP, 100 mg): 38%
- time to first pulmonary exacerbation, hazard ratio versus placebo (95% CI) ([3]; FAP, acebilustat combined group): 0.87 (0.605, 1.246)
- proportion of patients who did not experience a pulmonary exacerbation during the study period ([3]; FAP, combined acebilustat dose group): 38%
- response to acebilustat treatment (rate of exacerbations, hazard ratio) ([3]; FEV1 at or below 75% (≤75%)): did not exhibit the same level of response
- decrease in the rate of pulmonary exacerbations versus placebo [3, 7]: 54%
- higher proportion of patients exacerbation free at 48 weeks versus placebo [3, 7]: 165%
- decrease in the rate of pulmonary exacerbations versus placebo ([3]; FEV1pp greater than 75 and concomitant CFTR modulator therapy, 100 mg dose): 65%
- higher proportion of patients exacerbation free after 48 weeks of treatment versus placebo [3, 8]: 100%
- reduction in PEx rate versus placebo [3, 8]: 48%
- reduction in risk of experiencing first exacerbation versus placebo [3, 8]: 48%
- more patients with no PEx during the study compared with placebo [3, 9]: 32%
- reduced risk in progressing to first PEx versus placebo [3, 9]: 22%
- reduction in PEx versus placebo [3, 9]: 18%
- response to acebilustat treatment (rate of pulmonary exacerbations) ([3]; baseline FEV1pp at or below the median (≤68%)): did not exhibit the same level of response
- annual rate of pulmonary exacerbations versus placebo ([3]; baseline FEV1pp higher than the median (>68%)): lower annual rate of pulmonary exacerbations versus placebo
- patients who did not have a pulmonary exacerbation during the study ([3]; 50 mg): 48%
- patients who did not have a pulmonary exacerbation during the study ([3]; 100 mg): 50%
- patients who did not have a pulmonary exacerbation during the study ([3]; combined acebilustat group): 49%
- adjusted mean (95% CI) annualized rate of pulmonary exacerbations [3, 10]: 1.28 (0.84, 1.96)
- time to first pulmonary exacerbation, hazard ratio (95% CI) versus placebo [3, 10]: 0.62 (0.304, 1.274)
- adjusted mean (95% CI) annualized rate of pulmonary exacerbations [3, 11]: 0.84 (0.49, 1.44)
- time to first pulmonary exacerbation, hazard ratio (95% CI) versus placebo [3, 11]: 0.52 (0.245, 1.101)
- time to first pulmonary exacerbation, hazard ratio (95% CI) versus placebo ([3]; baseline FEV1pp>75%, FAP, acebilustat combined group): 0.57 (0.307, 1.051)
- adjusted mean (95% CI) annualized rate of pulmonary exacerbations ([3]; baseline FEV1pp>75%, FAP, combined acebilustat groups): 1.04 (0.74, 1.46)
- reduction in rate of PEx versus CFTR modulators and placebo ([3]; concomitant CFTR modulator therapy, regardless of disease severity, 100 mg dose): 14%
- higher proportion of patients with no exacerbations versus CFTR modulators and placebo [3, 12]: 51%
- increased time to first exacerbation versus CFTR modulators and placebo [3, 12]: 27%
- higher percentage of patients that were exacerbation free ([3]; patients off CFTR modulator therapy): about 15%
- sputum neutrophil elastase, sputum neutrophil DNA and serum hs-CRP versus placebo [4]: did not observe similar changes
- absolute change in FEV1pp from baseline at Week 48 versus placebo (primary endpoint) [5]: not different from placebo; also recorded: did not separate from placebo; also recorded: No difference between acebilustat and placebo
